Measured values from US11608313B2, “Adamantylmethylamine derivative and use thereof as pharmaceutical” (TOHOKU UNIVERSITY, priority 2017, dated 2023).

System: OBX mice
Experiment: Tail-suspension test and forced swim test in OBX mice (depression model)
Format: in vivo
Details: single oral dose 1 mg/kg, analyzed after 1 hour
Description: OBX mice were used as a depression model to determine the effect of TP-014 (chronic oral treatment for 2 weeks (1 mg/kg)) to ameliorate a depression-like symptom. OBX mice are reported to show a decline in cognitive function, but have originally been established as a depression model. Depression analysis was done by tail-suspension test and forced swim test. In the tail-suspension test, mice are hung upside-down by their tail. If the hung mice are affected by depression, they show a longer immobility time. The immobility time of normal mice is shorter since they move actively when hung. In the forced swim test, mice are forced to swim in a beaker filled with water. Depression mice neither swim nor move (just float). The time (immobility time(s)) for which mice stay still in such a way is measured.
The same model mice were orally treated with a single dose of each of the test compounds (1 mg/kg), and analyzed after 1 hour by tail-suspension test and forced swim test. The results are shown in FIGS. 22-1 (tail-suspension test) and 22-2 (forced swim test).

In the case of CC(C)(C)C(=O)N[C@@H](c1ccccc1)[C@H]1[C@H]2C[C@@H]3C[C@](Cl)(C2)C[C@@]1(O)C3 [TP-083, N—((R)-((1S,2R,3S,5S,7S)-5-chloro-1-hydroxyadamantan-2-yl)(phenyl)methyl)pivalamide], the “ameliorating effect on a depression-like symptom (tail-suspension test and forced swim test) compared with TP-014” value is reported as “higher ameliorating effect on a depression-like symptom than TP-014”.
